ChEMBL document CHEMBL3734751, “Discovery of novel, potent and low-toxicity angiotensin II receptor type 1 (AT1) blockers: Design, synthesis and biological evaluation of 6-substituted aminocarbonyl benzimidazoles with a chiral center” (Eur J Med Chem, 2015)
Positions count from the first letter of the chain named. Calls of active or inactive are those of the source. The rule behind the calls is not given here.

Tests used:
[1] = target: T1, Type-1 angiotensin II receptor (Homo sapiens, UniProt P30556); test: Displacement of [125I]Sar1Ile8-Ang2 from human AT1 receptor expressed in CHO-K1 cell membranes after 180 mins
T1 sequence (P30556 whole entry): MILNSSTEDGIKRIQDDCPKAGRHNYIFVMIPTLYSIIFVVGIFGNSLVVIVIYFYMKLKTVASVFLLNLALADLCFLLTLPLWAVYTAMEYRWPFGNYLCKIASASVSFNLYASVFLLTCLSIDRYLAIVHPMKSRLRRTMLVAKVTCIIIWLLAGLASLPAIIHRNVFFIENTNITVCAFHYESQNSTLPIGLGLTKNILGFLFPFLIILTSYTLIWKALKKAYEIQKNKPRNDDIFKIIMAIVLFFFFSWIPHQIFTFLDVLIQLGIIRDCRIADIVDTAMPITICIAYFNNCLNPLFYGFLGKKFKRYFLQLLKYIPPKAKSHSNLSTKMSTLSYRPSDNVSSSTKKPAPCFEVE

[2] = test system: Rattus norvegicus; test: Antihypertensive activity in po dosed spontaneously hypertensive rat assessed as decrease in mean blood pressure by tail-cuff plethysmography; type: functional, organism-based
[3] = target: T2, Type-1 angiotensin II receptor (Oryctolagus cuniculus, UniProt P34976); test: Antagonist activity against AT1 receptor in Japanese White rabbit aortic strips assessed as reduction in angiotension-2-induced contractile response after 60 mins by Schild's plot analysis; settings: read-out: pA2 (converted)
T2 sequence (P34976 whole entry): T1 sequence (P30556 whole entry) with I2M, V49A, I254V, I270V, R272H, R311K, T349S, A353V

[4] = test system: Rattus norvegicus; test: AUC in Sprague-Dawley rat at 3 mg/kg, iv by LC-MS/MS; type: ADME, organism-based; settings: in vivo
[5] = AUC in Sprague-Dawley rat at 30 mg/kg, po by LC-MS/MS; type: ADME, organism-based; settings: in vivo
[6] = Terminal half-life in Sprague-Dawley rat at 3 mg/kg, iv by LC-MS/MS; type: ADME, organism-based; settings: in vivo, read-out: beta t1/2 (converted)
[7] = Terminal half-life in Sprague-Dawley rat at 30 mg/kg, po by LC-MS/MS; type: ADME, organism-based; settings: in vivo, read-out: beta t1/2 (converted)
[8] = Cmax in Sprague-Dawley rat at 30 mg/kg, po by LC-MS/MS; type: ADME, organism-based; parameters: dose 30 mg/kg, route oral; settings: in vivo
[9] = Tmax in Sprague-Dawley rat at 30 mg/kg, po by LC-MS/MS; type: ADME, organism-based; settings: in vivo
[10] = Volume of distribution at steady state in Sprague-Dawley rat at 3 mg/kg, iv by LC-MS/MS; type: ADME, organism-based; settings: in vivo, read-out: Vdss
[11] = Oral bioavailability in Sprague-Dawley rat at 30 mg/kg, by LC-MS/MS; type: ADME, organism-based; settings: in vivo
[12] = Toxicity in Kunming mouse at 5 g/kg, po assessed as mortality after 2 weeks; type: organism-based; settings: in vivo, 5000 mg/kg
[13] = Toxicity in Kunming mouse at 4 g/kg, po assessed as mortality after 2 weeks; type: organism-based; settings: in vivo, 4000 mg/kg
[14] = Toxicity in Kunming mouse at 3 g/kg, po assessed as mortality after 2 weeks; type: organism-based; settings: in vivo, 3000 mg/kg
[15] = Toxicity in Kunming mouse at 2 g/kg, po assessed as mortality after 2 weeks; type: organism-based; settings: in vivo, 2000 mg/kg
[16] = Toxicity in orally dosed Kunming mouse assessed as mortality after 2 weeks; type: organism-based; settings: in vivo, po
[17] = Mutagenicity in Kunming mouse bone marrow cells assessed as micronucleated polychromatic erythrocytes level at 0.5 g/kg by May-Grunwald-Giemsa staining-based microscopic analysis (reference value: 3.2 +/- 1.62 ); type: toxicity, cell-based, Bone marrow cell; settings: in vivo, 500 mg/kg
[18] = Mutagenicity in Kunming mouse bone marrow cells assessed as micronucleated polychromatic erythrocytes level at 1 g/kg by May-Grunwald-Giemsa staining-based microscopic analysis (reference value: 3.2 +/- 1.62 ); type: toxicity, cell-based, Bone marrow cell; settings: in vivo, 1000 mg/kg
[19] = Mutagenicity in Kunming mouse bone marrow cells assessed as micronucleated polychromatic erythrocytes level at 2 g/kg by May-Grunwald-Giemsan staining-based microscopic analysis (reference value: 3.2 +/- 1.62 ); type: toxicity, cell-based, Bone marrow cell; settings: in vivo, 2000 mg/kg
[20] = Mutagenicity in Kunming mouse bone marrow cells assessed as ratio of polychromatic erythrocyte level to norchromatic erythrocyte level at 0.5 g/kg by May-Grunwald-Giemsa staining-based microscopic analysis (reference value: 1.32 +/- 0.22 ); type: toxicity, cell-based, Bone marrow cell; settings: in vivo, 500 mg/kg
[21] = Mutagenicity in Kunming mouse bone marrow cells assessed as ratio of polychromatic erythrocyte level to norchromatic erythrocyte level at 1 g/kg by May-Grunwald-Giemsa staining-based microscopic analysis (reference value: 1.32 +/- 0.22 ); type: toxicity, cell-based, Bone marrow cell; settings: in vivo, 1000 mg/kg
[22] = Mutagenicity in Kunming mouse bone marrow cells assessed as ratio of polychromatic erythrocyte level to norchromatic erythrocyte level at 2 g/kg by May-Grunwald-Giemsa staining-based microscopic analysis (reference value: 1.32 +/- 0.22 ); type: toxicity, cell-based, Bone marrow cell; settings: in vivo, 2000 mg/kg
[23] = test system: Mus musculus; test: Hepatotoxicity in Kunming mouse assessed as serum ALT level at 0.5 g/kg by automatic biochemical analyser (reference value: 44.33 +/- 6.50 U/T); type: toxicity, organism-based; settings: in vivo, 500 mg/kg
[24] = test system: Mus musculus; test: Hepatotoxicity in Kunming mouse assessed as serum ALT level at 1 g/kg by automatic biochemical analyser (reference value: 44.33 +/- 6.50 U/T); type: toxicity, organism-based; settings: in vivo, 1000 mg/kg
[25] = test system: Mus musculus; test: Hepatotoxicity in Kunming mouse assessed as serum ALT level at 2 g/kg by automatic biochemical analyser (reference value: 44.33 +/- 6.50 U/T); type: toxicity, organism-based; settings: in vivo, 2000 mg/kg
[26] = test system: Mus musculus; test: Hepatotoxicity in Kunming mouse assessed as serum AST level at 0.5 g/kg by automatic biochemical analyser (reference value: 133.44 +/- 25.05 U/T); type: toxicity, organism-based; settings: in vivo, 500 mg/kg
[27] = test system: Mus musculus; test: Hepatotoxicity in Kunming mouse assessed as serum AST level at 1 g/kg by automatic biochemical analyser (reference value: 133.44 +/- 25.05 U/T); type: toxicity, organism-based; settings: in vivo, 1000 mg/kg
[28] = test system: Mus musculus; test: Hepatotoxicity in Kunming mouse assessed as serum AST level at 2 g/kg by automatic biochemical analyser (reference value: 133.44 +/- […] U/T); type: toxicity, organism-based; settings: in vivo, 2000 mg/kg
[29] = test system: Mus musculus; test: Renal toxicity in Kunming mouse assessed as serum urea level at 0.5 g/kg by automatic biochemical analyser (reference value: 9.95 +/- 1.39 mmol); type: organism-based; settings: in vivo, 500 mg/kg
[30] = test system: Mus musculus; test: Renal toxicity in Kunming mouse assessed as serum urea level at 1 g/kg by automatic biochemical analyser (reference value: 9.95 +/- 1.39 mmol); type: organism-based; settings: in vivo, 1000 mg/kg
[31] = test system: Mus musculus; test: Renal toxicity in Kunming mouse assessed as serum urea level at 2 g/kg by automatic biochemical analyser (reference value: 9.95 +/- 1.39 mmol); type: organism-based; settings: in vivo, 2000 mg/kg
[32] = test system: Mus musculus; test: Renal toxicity in Kunming mouse assessed as serum creatinin level at 0.5 g/kg by automatic biochemical analyser (reference value: 13.78 +/- 2.64 umol/L); type: organism-based; settings: in vivo, 500 mg/kg
[33] = test system: Mus musculus; test: Renal toxicity in Kunming mouse assessed as serum creatinin level at 1 g/kg by automatic biochemical analyser (reference value: 13.78 +/- 2.64 umol/L); type: organism-based; settings: in vivo, 1000 mg/kg
[34] = test system: Mus musculus; test: Renal toxicity in Kunming mouse assessed as serum creatinin level at 2 g/kg by automatic biochemical analyser (reference value: 13.78 +/- 2.64 umol/L); type: organism-based; settings: in vivo, 2000 mg/kg
[35] = test system: Rattus norvegicus; test: Antihypertensive activity in spontaneously hypertensive rat model assessed as decrease in systolic and diastolic blood pressure at 30 mg/kg, po administered daily for 14 days by tail-cuff plethysmography; type: functional, organism-based
[36] = test system: Rattus norvegicus; test: Antihypertensive activity in spontaneously hypertensive rat model assessed as decrease in systolic and diastolic blood pressure at 30 mg/kg, po administered daily for 14 days and measured after 2 days of drug withdrawal by tail-cuff plethysmography; type: functional, organism-based
[37] = test system: Rattus norvegicus; test: Antihypertensive activity in spontaneously hypertensive rat model assessed as decrease in heart rate at 30 mg/kg, po administered daily for 14 days and measured after 2 days of drug withdrawal by tail-cuff plethysmography; type: functional, organism-based
[38] = test system: Rattus norvegicus; test: Antihypertensive activity in spontaneously hypertensive rat model assessed as decrease in heart rate at 30 mg/kg, po administered daily for 14 days by tail-cuff plethysmography; type: functional, organism-based

**Q.** Which IC50 [1] does the source give for `CCCc1nc2c(C)cc(C(=O)NC[C@H](C)c3ccccc3)cc2n1Cc1ccc(-c2ccccc2-c2nnn[nH]2)cc1` here?
**A.** 1.1 nM

**Q.** And the Activity [2]?
**A.** Dose-dependent effect

**Q.** What about the Kb [3] of the same compound?
**A.** 1.78 nM

**Q.** And the AUC [4]?
**A.** 12200 ng·h/mL

**Q.** And the AUC [5]?
**A.** 51500 ng·h/mL

**Q.** And the half-life [6]?
**A.** 12.6 h

**Q.** And the half-life [7]?
**A.** 13 h

**Q.** What about the Cmax [8] of the same compound?
**A.** 14600 ng/mL

**Q.** What about the Tmax [9] of the same compound?
**A.** 0.75 h

**Q.** And the Vd [10]?
**A.** 11 L/kg

**Q.** And the bioavailability [11]?
**A.** 42%

**Q.** What about the mortality at 336 h [12] of the same compound?
**A.** 90%

**Q.** And the mortality at 336 h [13]?
**A.** 50%

**Q.** And the mortality at 336 h [14]?
**A.** 30%

**Q.** What about the mortality at 336 h [15] of the same compound?
**A.** 0%

**Q.** And the LD50 at 336 h [16]?
**A.** 3640 mg/kg

**Q.** And the Activity [17]?
**A.** 3

**Q.** And the Activity [18]?
**A.** 3.8

**Q.** And the Activity [19]?
**A.** 4.3

**Q.** And the Ratio [20]?
**A.** 1.34

**Q.** And the Ratio [21]?
**A.** 1.28

**Q.** And the Ratio [22]?
**A.** 1.64

**Q.** What about the Activity [23] of the same compound?
**A.** 42.7 U/L

**Q.** And the Activity [24]?
**A.** 52.6 U/L

**Q.** And the Activity [25]?
**A.** 91.4 U/L

**Q.** And the Activity [26]?
**A.** 126 U/L

**Q.** And the Activity [27]?
**A.** 141 U/L

**Q.** And the Activity [28]?
**A.** 217 U/L

**Q.** And the Activity [29]?
**A.** 8.71 mM

**Q.** What about the Activity [30] of the same compound?
**A.** 10 mM

**Q.** What about the Activity [31] of the same compound?
**A.** 11.2 mM

**Q.** And the Activity [32]?
**A.** 10.3 µmol/L

**Q.** What about the Activity [33] of the same compound?
**A.** 8.3 µmol/L

**Q.** What about the Activity [34] of the same compound?
**A.** 6.14 µmol/L

**Q.** What about the Activity [35] of the same compound?
**A.** Active

**Q.** What about the Activity [36] of the same compound?
**A.** Active

**Q.** And the Activity [37]?
**A.** Active

**Q.** What about the Activity [38] of the same compound?
**A.** Active
